The values that follow come from patent US20230303551A1, “N-CYCLYL-SULFONAMIDES USEFUL FOR INHIBITING RAF” (ALBERT EINSTEIN COLLEGE OF MEDICINE, priority 2020, published 2023).

Structures are written as SMILES. pIC50: −log10 of the molar value. Entries after “also recorded” stand apart in the source; their conditions may differ. A value given as a limit tells only on which side of the number the result lay.

The subject of one series is p-MEK in A375 cells. Kind of series: Wash-out and recovery of MAPK signaling in A375 cells. The format is cell-based. The conditions noted are these: for relative p-MEK1/2 after washout: A375, 500 nM for 1 hr, then washout. As to the method: Wash-out experiments were conducted in A375 cells. After treatment with inhibitors at 500 nM for 1 h (on time), cells were incubated with fresh medium for the indicated times (off time). p-MEK levels were determined by WB and were quantified by densitometric analysis. p-MEK levels were normalized to total ERK1/2 which was used as loading control and control cells (DMSO treatment). Data were fit to an exponential model using least squares, to obtain apparent half-life (t1/2) values.
(§1) Densitometric data for p-ERK, p-MEK, ERK1/2 (MAPK cellular activity) or BRAF and GAPDH (CETSA analysis) from western blot scanned films were obtained using Image Studio software (LI-COR). Data were corrected to loading control (total ERK1/2 or GAPDH) and normalized to DMSO treated bands (100%) and blot backgrounds (0%). IC50 or Tm values were obtained from non-linear regression fits of normalized data to a four-parameter logistic curve (4PL).

Series [1] deals with p-ERK1/2 and p-MEK1/2 in SKMEL239-C4 cells. Kind of series: Wash-out and recovery of MAPK signaling in SKMEL239-C4 cells. The conditions noted are these: SKMEL239-C4, 500 nM for 1 hr, then washout. The series is classed as cell-based.
The next series has as its system A375 cells. In words: Cell viability (Cell-Titer Glo), A375. As to conditions: Homo sapiens, A-375; A375, 72 hr. The series is classed as cell-based. As to the method: (§2) For cell viability and proliferation assays, we followed the manufacturer's protocol for Cell-Titer Glo (Promega). In brief, cells were plated in 96-well plates at a density of 5000 cells per well. The next day, cells were treated with increasing concentrations of inhibitors for 72 hours at 37° C. At the end of the incubation period, 100 μL of Cell-Titer Glo (Promega) was added to each well and further incubated for 15 min at room temperature. Cell viability was determined by measuring luminescence and was detected by a F200 PRO microplate reader (TECAN). Viability assays were performed in at least triplicate and the data normalized to vehicle-treated control wells. IC50 values were determined by nonlinear regression analysis using Prism software (Graphpad). Antiproliferative synergy was determined by co-treatment of inhibitors at indicated concentrations in 96-well plated at a density of 3000 cells per well. Inhibitors or DMSO control were injected using a D300e digital dispenser (TECAN). Extend of synergy was quantified using the BLISS matrix method.

A further series concerns RKO cells. Kind of series: Cell viability (Cell-Titer Glo), RKO. The series is classed as cell-based. Here is the method:
as §2

For another series, the target named is full length BRAF^V600E (Homo sapiens, UniProt P15056, V600E). In words: In vitro residence time (ATP-site tracer T178 displacement, LanthaScreen). The series is classed as binding. The conditions noted are these: kinase ATP-probe displacement. Here is the method: Residence times of inhibitors to recombinant full-length BRAF was determined using an adaptation of the LanthaScreen Eu Kinase Binding Assay (Invitrogen). Initially, binding of inhibitors to his-tagged BRAF labelled with Eu-anti-his antibody at 80-90% saturation was established, by incubating inhibitors and BRAF in PBS buffer (max DMSO 2%) for […] The reactions were then rapidly diluted 25× times in a saturated concentration of the fluorescent ATP-site tracer T178 (Invitrogen). Dissociation of inhibitors from BRAF by T178 tracer was monitored in real-time by detecting the TR-FRET […] to […] emission ratio every 20 sec. The TR-FRET signal was normalized between 100% (no inhibitors present) and 0% (saturated inhibitor binding). Time traces were fit to a single exponential to obtain the half-life (t1/2) of dissociation of inhibitors. Residence times for each inhibitor were calculated as (t1/2)/ln2.
(In TR-FRET formats the signal depends on donor and acceptor labels being close together.)

The test system of the next series is SK-MEL-239-C4 cells. Kind of series: Cell viability (Cell-Titer Glo), SK-MEL-239-C4. The format is cell-based. The conditions noted are these: SK-MEL-239-C4, 72 hr. Here is the method:
as §2

For series [2], the system named is pERK in melanoma A375 cells expressing BRAF^V600E. Kind of series: pERK inhibition in A375 cells (Western blot densitometry). The format is cell-based. As to conditions: 1 hr treatment. Here is the method: Western blots were performed from whole cell lysates (WCLs) prepared in lysis buffer containing 50 mM Tris-HCl pH7.5, 1% NP40, 150 mM NaCl, 1 mM EDTA and 10% glycerol in the presence of protease inhibitor cocktail (Roche). WCLs were separated on a 4-12% NuPAGE MES gel (Invitrogen), transferred onto a PVDF membrane, blocked for lhr and immunoblotted with the corresponding antibodies.
as §1
For orientation: Immunoblotting shows a protein as a band on a membrane.

The target of series [3] is T1, BRAF^V600E (Homo sapiens, UniProt P15056, V600E). Kind of series: Cellular Thermal Shift Assay (CETSA) in A375 cells. The series is classed as cell-based. On the set-up: endogenous in cells; host or cells: A375 melanoma cells. As to conditions: A375 cells, 1, 5 and 20 μM.
From the text: as §1
For CETSA analysis, cultured A375 melanoma cells were washed with Dulbecco's phosphate buffered saline (DPBS) and split into 500 μL aliquots (each containing 3,75 million cells) in the same buffer, containing DMSO control (20 μM) or 1, 5 and 20 μM of DAB or DABK. The samples were incubated for 1 hr at room temperature, rotating. After compound incubation, samples (50 μL each) were transferred in PCR tubes and incubated for 3 min in a temperature gradient produced with a C1000 thermal cycler (Bio-Rad). Cells were immediately lysed by repeating freeze-thaw cycles (3× times) in liquid nitrogen. Lysates were spun in a microcentrifuge at 15.000× g for 15 min at 4° C. Equal volumes of supernatants were run on 15-well 4-12% NuPAGE SDS-PAGE gels (Invitrogen), and analyzed by western blot. Results were quantitated by densitometric analysis and were normalized to GAPDH loading control, which is temperature insensitive under these conditions. […]

The target of series [4] is T1, BRAF^V600E. Kind of series: LanthaScreen Eu kinase binding assay. As to the method: Binding affinity of inhibitors to recombinant full-length BRAF was determined using the LanthaScreen Eu Kinase Binding Assay (Invitrogen) in PBS buffer. Initially, saturated binding of fluorescent Alexa Fluor 647 ATP-site tracer T178 (Invitrogen) on BRAF, which was his-tagged at the N-terminus, was established. T178 tracer was then competed-off by increasing amounts of inhibitors in titration experiments in 96-well plates. Competition was detected by loss of TR-FRET signal. The signal was produced by a FRET pair between an Eu-labeled anti his-tag antibody, which recognizes his-tagged BRAF used in the assay, and the T178 tracer. The europium donor was excited using a 340 nm excitation filter and energy transfer to the T178 tracer was measured using a filter centered at 665 nm with a time delay of 200 μs. The emission ratio was calculated as the 665 nm signal divided by the 615 nm signal. The apparent % inhibition was calculated by least squares fits of the emission ratio. […] The maximum DMSO concentration in the assay was 2%.

Series [5] deals with T1, BRAF^V600E. In words: Z'-LYTE kinase activity assay, BRAF^V600E. The conditions noted are these: equilibrium; ZLYTE. The series is classed as biochemical. Here is the method:
BRAF kinase assays were performed using the Z′-LYTE™ enzymatic assay (Invitrogen, USA). […] Titrations were performed using a 1:3 dilution. Assays were performed using SelectScreen (Invitrogen).

A short description of series [6]: Pharmacokinetic profile, mouse plasma levels after oral gavage. The series is classed as in vivo, CD-1 female mice. The conditions noted are these: 5 mg/kg. Here is the method:
(§3) The pharmacokinetic profile of DAB and DABK was assessed in CD-1 female mice after a single dose at 5 mg/kg by oral gavage. Blood samples were collected at various time points (0.5, 1, 2, 4, 6, 12 and 24 hr after oral gavage) and inhibitor concentrations in plasma determined by an internal standard HPLC-chromatography tandem mass spectrometry method using calibration standards prepared in blank mouse plasma. Reported plasma concentrations are average values from 3 mice per time point. For PD study, tumor xenografts were established by subcutaneous implantation of A375 melanoma cells plus Matrigel (BD Biosciences) into the right flank of female SCID mice. Mice were randomized to treatment and control groups when the average tumor volume reached 100-150 mm^3 and were treated with a single oral dose (PO) of either vehicle or inhibitors at 5 mg/kg. Tumors were harvested at 2, 12 and 24 hr post PO (3 mice per group). Harvested tumors were homogenized in lysis buffer containing 50 mM Tris-HCl pH7.5, 1% NP40, 150 mM NaCl, 1 mM EDTA, 10% glycerol and phosphatase/protease inhibitors. pERK levels in clarified lysates were determined by Western Blotting and were expressed as % inhibition by normalization to average levels from vehicle tumors (0% inhibition). Vehicle formulation for DAB and DABK treatment in both PK and PD was 30% PEG-400, 0.5% Tween-20, 5% Glycerol in PBS.

The subject of a further series is A549 cells. Kind of series: Cell viability and antiproliferative synergy with cobimetinib (Bliss matrix), A549. The format is cell-based. The conditions noted are these: A549, combination with cobimetinib (COB). As to the method: as §2
For a further series, the system named is panel of 97 kinases. In words: KinomeScan. The format is binding. As to conditions: competition screen.
The test system of series [7] is pERK in A375 xenograft tumors. In words: Pharmacodynamic study, pERK in A375 xenograft tumors. The conditions noted are these: 5 mg/kg single oral dose, A375 mice xenograft. The format is in vivo, female SCID mice. As to the method:
as §3

T1 sequence (P15056 whole entry V600E): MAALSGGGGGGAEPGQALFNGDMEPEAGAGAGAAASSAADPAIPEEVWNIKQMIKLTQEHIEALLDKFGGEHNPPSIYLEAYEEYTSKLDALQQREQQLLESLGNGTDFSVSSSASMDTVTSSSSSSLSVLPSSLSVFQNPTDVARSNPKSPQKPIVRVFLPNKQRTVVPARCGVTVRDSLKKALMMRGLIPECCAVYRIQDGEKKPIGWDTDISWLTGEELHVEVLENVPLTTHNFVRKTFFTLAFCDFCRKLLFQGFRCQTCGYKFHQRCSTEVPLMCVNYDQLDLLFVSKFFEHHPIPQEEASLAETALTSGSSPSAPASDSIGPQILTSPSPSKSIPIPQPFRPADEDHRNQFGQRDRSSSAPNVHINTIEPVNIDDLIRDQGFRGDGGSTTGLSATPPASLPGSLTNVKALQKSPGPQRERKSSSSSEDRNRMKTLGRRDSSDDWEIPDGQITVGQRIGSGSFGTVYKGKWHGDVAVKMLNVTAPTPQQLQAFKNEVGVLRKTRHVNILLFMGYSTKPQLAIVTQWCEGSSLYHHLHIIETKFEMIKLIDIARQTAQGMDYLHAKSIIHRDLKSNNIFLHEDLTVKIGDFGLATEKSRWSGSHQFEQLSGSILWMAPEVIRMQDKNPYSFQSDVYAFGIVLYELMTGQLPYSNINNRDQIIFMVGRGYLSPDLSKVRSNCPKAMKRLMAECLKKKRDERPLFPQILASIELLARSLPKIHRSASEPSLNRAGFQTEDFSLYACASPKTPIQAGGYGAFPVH
Sequence of full length BRAF^V600E (P15056 whole entry V600E): as above

With `C[C@@H](CNc1nccc(-c2sc(C(C)(C)C)nc2-c2cccc(NS(=O)(=O)c3c(F)cccc3F)c2F)n1)NC(=O)CCO` [Compound K6], in the series with p-MEK in A375 cells, the “relative p-MEK1/2 after washout” value is given as “prolonged signaling inhibition over time”. Moreover, in series [1], the “p-MEK1/2 inhibition after washout” value is listed as “Almost complete p-MEK1/2 inhibition over time” and the “relative p-ERK1/2 after washout” value is “prolonged ERK signaling inhibition over time”.

Consider `COC(=O)N[C@@H](CN)CNc1nccc(-c2sc(C(C)(C)C)nc2-c2cccc(NS(=O)(=O)c3c(F)cccc3F)c2F)n1` [Compound K8], for which, in the series on p-MEK in A375 cells, the “relative p-MEK1/2 after washout” value is “prolonged signaling inhibition over time”. Moreover, in series [1], the “p-MEK1/2 inhibition after washout” value is listed as “Almost complete p-MEK1/2 inhibition over time” and the “relative p-ERK1/2 after washout” value is “prolonged ERK signaling inhibition over time”.

Consider `CC(C)(C)c1nc(-c2cccc(NS(=O)(=O)c3c(F)cccc3F)c2F)c(-c2ccnc(N)n2)s1` [DAB, dabrafenib], for which the pIC50 (commonly the negative decadic logarithm of the IC50, by convention in mol/L) was 8.28 in the series on A375 cells; 6.37 with RKO cells (72 hr); below 6.40 in the series on RKO cells (Homo sapiens, 72 h); below 6.40 in the series on SK-MEL-239-C4 cells (72 h); 6.34 in the series on SK-MEL-239-C4 cells. Further, on full length BRAF^V600E, the “apparent in vitro residence time (Koff)” value is “significantly shorter residence times”. Moreover, the “IC50 of pERK inhibition” value in [2] was “lower IC50”. Further, the “melting temperature (Tm)” value on BRAF^V600E [3] is “very similar”.

As to `COC(=O)N[C@@H](C)CNc1nccc(-c2sc(C(C)(C)C)nc2-c2cccc(NS(=O)(=O)c3c(F)cccc3F)c2F)n1` [DABK], the negative-log IC50 (pIC50) with A375 cells is 8.47; with RKO cells (72 hr), 7.69; in the series with RKO cells (Homo sapiens, 72 h), 7.70; with SK-MEL-239-C4 cells (72 h), 7.46; in the series with SK-MEL-239-C4 cells, 7.45. Further, the “Kd, binding affinity” value at BRAF^V600E [4] is “low nM range”. Further, the “half-life of recovery of pMEK inhibition” value with p-MEK in A375 cells (A375, 500 nM for 1 h, then wash-out) is listed as 2.5 hours. Also, the “relative p-MEK1/2 after washout” value with p-MEK in A375 cells was “prolonged signaling inhibition over time”. For the same compound, the “retention of p-MEK inhibition relative to DAB” value in the series with p-MEK in A375 cells (A375 wash-out, times longer than DAB) is “approximately 4.4 times”. In addition, the “IC50, kinase inhibitory activity” value on BRAF^V600E [5] was “low nM range”. The “clearance from the blood” value in [6] is on record as “faster clearance from the blood than DAB”. In addition, in the series with A549 cells, the “extent of antiproliferative synergy” value is given as “strong synergy”. In addition, the “targeting selectivity across the kinome” value in the series with panel of 97 kinases is “improved compared to DAB's; also recorded: improved targeting selectivity across the kinome; also recorded: higher specificity than DAB”. Besides, the “apparent in vitro residence time (Koff)” value on full length BRAF^V600E is reported as “sustained binding in the time frame of the experiment”. Moreover, the “p-MEK1/2 inhibition after washout” value in series [1] was “Almost complete p-MEK1/2 inhibition over time”. In series [1], the “relative p-ERK1/2 after washout” value is “prolonged ERK signaling inhibition over time”. The “endurance of pERK inhibition in tumors” value in [7] is on record as above 12 hr. The “IC50 of pERK inhibition” value in series [2] is reported as “comparable IC50 to Enco”. Besides, at BRAF^V600E [3], the “melting temperature (Tm)” value is reported as “very similar”.

Turning to `COC(=O)N[C@@H](C)CNc1nccc(-c2cn(C(C)C)nc2-c2cc(Cl)cc(NS(C)(=O)=O)c2F)n1` [Enco, encorafenib], the negative-log IC50 (pIC50) with RKO cells (Homo sapiens, 72 h) is below 6.40; in the series with SK-MEL-239-C4 cells (72 h) it was below 6.40. Also, at full length BRAF^V600E, the “apparent in vitro residence time (Koff)” value was “sustained binding in the time frame of the experiment”.

Take `CCCS(=O)(=O)Nc1ccc(F)c(C(=O)c2c[nH]c3ncc(-c4ccc(Cl)cc4)cc23)c1F` [VEM, vemurafenib]: the pIC50 in the series with RKO cells (Homo sapiens, 72 h) was below 6.40; in the series with SK-MEL-239-C4 cells (72 h), below 6.40.
